From US10287294B2, “Compounds for use in treating or preventing cancerous diseases” (BIOMEDICAL RESEARCH FOUNDATION OF THE ACADEMY OF ATHENS, priority 2015, dated 2019)
Values belong to the compound of their own block, whether it stands above or below them.

Assays:
H015.19 cells = assay: MTT cell viability assay, H015.19 cells (Myc-/-); type: cell-based, rat; settings: Rattus norvegicus, 72 h, Myc-/- cells
Excerpt: (§1) To evaluate the in vitro activity of the compound having the formula (II) (Amy22), the sibling cell lines TGR-1 and H015.19 were used. The TGR-1 cells are a subclone of the Rat-1 fibroblastic cell line with intact Myc (Myc^+/+), whereas the H015.19 cells are Myc^−/− derivatives of the TGR-1 cells (Mateyak et al., 1997). The two sibling cell lines thus differ only in the presence or absence of Myc, thereby allowing to determine not only the activity of the tested compound in Myc-positive cancer cells, but also in cells not expressing Myc offering an indication of the specificity of the tested compound.
(§2) The TGR-1 and H015.19 cells were grown in DMEM supplemented with 10% FBS. Equal numbers of cells were seeded in multiple wells of 24-well plates at low density (<20% confluence at day 0), and either DMSO or DMSO-dissolved Amy22 (various concentrations) was added to the medium (final concentration of DMSO: 0.1%). Cell viability (sextuplicates) was measured on day 3 by using a standard MTT (Thiazolyl Blue Tetrazolium Bromide) colorimetric assay (Mosmann, 1983). Half-maximal inhibitory concentrations (IC50) were determined using a log it-log plot and linear regression of the data (SigmaPlot software; Systat Software, Inc., San Jose, Calif., USA), as shown in FIG. 1 and Table 1. The measured data were plotted on the log it-log plot for linear regression of cell viability data (average values from 5 independent experiments in each case), in order to calculate the Amy22 IC50 for the sibling cell lines that differ only in the presence or absence of Myc (TGR-1 and H015.19 cells, respectively). The IC50 for H015.19 cells was calculated by extrapolation.

[1] = MTT cell viability assay, H015.19 cells (Myc-/-); type: cell-based, rat; settings: rat, H015.19 cells (Myc-/- derivatives of TGR-1), day 3, MTT, average ± S.E.M
Excerpt: as §1, §2

[2] = Blood concentrations of Amy22 after oral gavage to mice (LC-MS/MS, non-compartmental analysis); type: in vivo, mouse
Description: Animals at the age of 10 weeks were fasted overnight and weighed before dosing (average weight=21.6 g, n=6 male C57BL/6N). Dosing solutions of 20 mg/ml Amy22 in 0.5% carboxymethyl cellulose (CMC) were used for administration per os (0.15 ml per animal, dose 140 mg/kg). A serial tail bleeding protocol was used for the collection of blood samples. Blood samples (10 μl) were collected at selected time points (0.5, 1, 2, 4, 8, 24 hours) in tubes containing 40 μl sodium citrate (0.1 M, pH 4.5) and stored at −80° C. until sample extraction. Samples were prepared for quantification by protein precipitation and evaporation. Amy22 was quantified by LC-MS/MS analysis.
Pharmacokinetic Parameters Using Non-Compartmental Analysis

[3] = test system: human pancreatic ductal adenocarcinoma cell line MiaPaCa2 xenografts; assay: Amy22 treatment of MiaPaCa2 xenografts in NOD/SCID mice; type: in vivo; settings: Amy22 150 mg/kg for two weeks
Description: For transplantation, eight-week old NOD/SCID mice were anesthetized using a steady flow of a mixture of isofluorane gas (4%) and oxygen and inoculated subcutaneously into their lateral flanks with 10^6 cancer cells and monitored daily until the tumors became palpable (tumor volume ˜100 mm^3). The mice were then divided randomly into two groups for Amy22 (150 mg/kg) or vehicle administration for a period of two weeks. Average weights±S.E.M (n=4 in each case) are indicated (p<0.001 and <0.05 for MiaPaCa2 and MMTV-Myc, respectively). […] FIG. 3 illustrates the gross appearance of surgically recovered Amy22-treated or untreated (control) xenografts.

TGR-1 cells = assay: MTT cell viability assay, TGR-1 cells (Myc+/+); type: cell-based; settings: Rattus norvegicus, TGR1, 72 h; for IC50: Myc+/+ cells, MTT day 3, logit-log linear regression
Excerpt: as §1, §2

[4] = test system: pancreatic ductal adenocarcinoma (PDA); assay: Micro PET/CT imaging of Pdx1-Cre/KRAS*A mouse treated with Amy22; type: in vivo
Description: PET/CT images were acquired of a Pdx1-Cre/KRAS*A mouse at the beginning and end of treatment (one month) of pancreatic ductal adenocarcinoma (PDA) with the Amy22 compound (cf. FIG. 4; a representative out of three independent experiments is shown). Dosing solutions of 20 mg/ml Amy22 in 0.5% carboxymethyl cellulose (CMC) were used for daily administration per os (0.15 ml per animal, dose 150 mg/kg) for 30 days. The diminished uptake of ^18F-FDG by remnants of PDA is evident and measured by the standardized uptake values (SUV values) that were 2.87 at the beginning and 1.5 at the end of the treatment. The white arrows indicate the anatomical sites of pancreata. High-level concentration of ^18F-FDG in the urinary bladder (excretion of the tracer) and also in the heart (yellow arrows) is noted.

[5] = test system: pancreatic ductal adenocarcinoma (PDA); assay: Post-mortem gamma counting of 18F-FDG uptake in Pdx1-Cre/KRAS*A mice after monotherapy or combination with Amy22; type: in vivo, mouse; settings: one month; Gemcitabine 300 mg/kg IP weekly; in combination Amy22 150 mg/kg per os daily
Description: The representative PET/CT images shown were acquired for Pdx1-Cre/KRAS*A mice at the beginning and end of treatment (one month) of pancreatic ductal adenocarcinoma (PDA) using either Gemcitabine alone or a combination of Gemcitabine and Amy22. The scheme used for the treatment was as follows: weekly IP administration of Gemcitabine (300 mg/kg) in both cases and daily administration of AMY22 per os (150 mg/kg) in the combination treatment (cf. FIG. 5).
In some scans, a high-level concentration of ^18F-FDG in the urinary bladder (excretion of the tracer) could be observed. High uptake of radioactivity (unrelated to the presence of tumor) was also noted in the heart.

[6] = test system: human prostate cancer xenografts; settings: two weeks in vivo treatment with 20 or 30 mg/kg; cited from earlier work
[7] = mouse, whole blood, po, blood, male C57BL/6N mice, 140 mg/kg per os in 0.5% CMC
[8] = MTT day 3, logit-log linear regression

IC50 (H015.19 cells; MTT day 3, calculated by extrapolation): 1800 µM
Elimination rate constant (ke) ([2]; blood, male C57BL/6N mice, 140 mg/kg per os in 0.5% CMC): 0.2 ± 0.1 h⁻¹
AUC(0-inf) [2, 7]: 35.4 ± 9.5 µM·h
Cmax [2, 7]: 6.2 ± 1.1 µM
Tmax [2, 7]: 1.5 ± 0.5 h
AUC(0-t) ([2]; mouse, whole blood, po, blood, male C57BL/6N mice, 140 mg/kg per os in 0.5% CMC, read-out: AUC0-24): 33.6 ± 8.3 µM·h
blood concentrations ([2]; up to at least 8 hr post dose, oral 140 mg/kg): > 1 micro molar
SMILES: O=C(Nc1c(C(=O)O)cnn1-c1ccccc1)c1cc2nc(-c3ccco3)cc(C(F)(F)Cl)n2n1 [Amy22]
viability at 3 days, 0.1 μM ([1]; Amy22 0.1 μM): 86.3 ± 5.9%
viability at 3 days, 0.5 μM ([1]; Amy22 0.5 μM): 84.7 ± 5.7%
viability at 3 days, 1 μM ([1]; Amy22 1 μM): 80 ± 4.1%
viability at 3 days, 5 μM ([1]; Amy22 5 μM): 75.3 ± 8.8%
viability at 3 days, 10 μM ([1]; Amy22 10 μM): 74.6 ± 4.9%
viability at 3 days, 25 μM ([1]; Amy22 25 μM): 70.8 ± 5.1%
viability at 3 days, 50 μM ([1]; Amy22 50 μM): 67.8 ± 4%
viability at 3 days, 100 μM ([1]; Amy22 100 μM): 61.1 ± 3.8%
apoptosis in xenografts [3]: induced apoptosis
proliferation index (Ki67 immunohistochemistry) ([3]; MiaPaCa2 xenografts, controls 69.9±5.1%): 15.0±3.3%
viability at 0.1 µM (TGR-1 cells; Amy22 0.1 μM, day 3, MTT, average ± S.E.M): 84.4 ± 5%
viability at 0.5 µM (TGR-1 cells; Amy22 0.5 μM, day 3, MTT, average ± S.E.M): 73.7 ± 4%
viability at 1 µM (TGR-1 cells; Amy22 1 μM, day 3, MTT, average ± S.E.M): 67.3 ± 4.1%
viability at 5 µM (TGR-1 cells; Amy22 5 μM, day 3, MTT, average ± S.E.M): 54.5 ± 4.6%
viability at 10 µM (TGR-1 cells; Amy22 10 μM, day 3, MTT, average ± S.E.M): 46 ± 2.5%
viability at 25 µM (TGR-1 cells; Amy22 25 μM, day 3, MTT, average ± S.E.M): 39.9 ± 2.2%
viability at 50 µM (TGR-1 cells; Amy22 50 μM, day 3, MTT, average ± S.E.M): 26.8 ± 4.8%
viability at 100 µM (TGR-1 cells; Amy22 100 μM, day 3, MTT, average ± S.E.M): 19 ± 3.7%
IC50 (TGR-1 cells): 5.8 µM
survival and condition of treated mice ([4]; after 150 mg/kg per os daily for 30 days): still alive 3 months post-treatment with no evident signs of cachexia
standardized uptake value (SUV) of 18F-FDG ([4]; at the beginning of treatment): 2.87
standardized uptake value (SUV) of 18F-FDG ([4]; at the end of treatment, 150 mg/kg per os daily for 30 days): 1.5

IC50 (H015.19 cells; [8]): 13.4 µM
SMILES: O=C(Nc1ccc(F)cc1)c1cc2nc(-c3ccco3)cc(C(F)(F)Cl)n2n1 [formula (III), reference compound]
IC50 (TGR-1 cells): 6.5 µM

SMILES: Nc1ccn([C@@H]2O[C@H](CO)[C@@H](O)C2(F)F)c(=O)n1 [Gemcitabine]
remaining tumor as % of untreated PDA tumors (18F-FDG uptake, gamma counting post-mortem) [5]: 31%

IC50 (H015.19 cells; [8]): 58.8 µM
SMILES: O=C(c1cc2nc(-c3ccco3)cc(C(F)(F)Cl)n2n1)N1CCNCC1 [formula (IV), reference compound]
IC50 (TGR-1 cells): 12.3 µM

SMILES: CCc1ccc(C=C2SC(=S)NC2=O)cc1 [10058-F4, [Z,E]-5-[4-ethylbenzylidine]-2-thioxothiazolidin-4-one]
inhibition of tumor growth [6]: no significant inhibition of tumor growth
